Reference: patent US11591323B2, “Muscarinic agonists as non-steroidal and non-opioid analgesics and methods of use thereof” (Barry University, priority 2019, dated 2023)
Read-outs that look alike come from different tables or passages of the source.

Assays:
M1 muscarinic receptor = biological target: T1, M1 muscarinic receptor (Homo sapiens, UniProt P11229); experiment: accumulation of IPX, M1 CHO cells transfected with G15 (M1Gq+G15); type: cell-based; parameters: host or cells: CHO cells
T1 sequence (P11229 1-460): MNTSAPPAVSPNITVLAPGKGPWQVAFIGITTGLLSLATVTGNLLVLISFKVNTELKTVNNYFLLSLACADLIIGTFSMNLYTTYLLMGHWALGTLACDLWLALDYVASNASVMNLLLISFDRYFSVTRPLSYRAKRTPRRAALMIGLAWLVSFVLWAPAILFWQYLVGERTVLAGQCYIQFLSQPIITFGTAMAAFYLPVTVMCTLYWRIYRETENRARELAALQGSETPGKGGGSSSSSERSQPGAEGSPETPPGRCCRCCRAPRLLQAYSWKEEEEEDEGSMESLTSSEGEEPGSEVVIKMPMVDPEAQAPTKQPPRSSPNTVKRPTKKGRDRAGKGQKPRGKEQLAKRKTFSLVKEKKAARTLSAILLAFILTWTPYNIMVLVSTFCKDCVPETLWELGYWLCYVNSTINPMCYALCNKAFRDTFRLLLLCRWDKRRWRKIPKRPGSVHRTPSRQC
Experimental: (§1) To determine level of cAMP, cells in suspension were pre-incubated for 1 h with 0.4 μM [^3H]adenine, washed, and incubated for 10 min in the presence of isobutylmethylxanthine and 10 μM forskolin. […] Incubation was ended by addition of 0.2 ml of 2.5 M HCl to the samples. Samples were applied to alumina columns (1.5 g of alumina per column), washed with 2 ml ammonium acetate (pH=7.0) and eluted from columns with 4 ml ammonium acetate and measured by liquid scintillation spectrometry. […] The incubation was stopped by addition of 0.5 ml of chloroform methanol HCl mixture (2:1:0.1). After separation of water and organic phases, 0.6 ml of water phase was applied to Dowex columns (1.5 g of Dowex per column), washed by 20 ml of 60 mM ammonium formate/5 mM sodium borate buffer and eluted from columns with 4 ml of 1M ammonium formate/0.1 formic acid buffer and measured by liquid scintillation spectrometry.
(§2) Measurements of the production of cAMP and inositol phosphates: Levels of second messengers cAMP and inositol phosphates were determined in radiochemical chromatography assays as described previously. To determine level of cAMP, cells in suspension were pre-incubated for 1 h with 0.4 μM [^3H]adenine, washed, and incubated for 10 min in the presence of isobutylmethylxanthine and 10 μM forskolin. […] Incubation was ended by addition of 0.2 ml of 2.5 M HCl to the samples. Samples were applied to alumina columns (1.5 g of alumina per column), washed with 2 ml ammonium acetate (pH=7.0) and eluted from columns with 4 ml ammonium acetate and measured by liquid scintillation spectrometry. […] For this purpose, new CHO cell lines stably expressing promiscuous G15 G-protein and M2 or M4 receptor were generated by transfection with pCMV/hygro vector and hygromycin selection. To determine the rate of formation of inositol phosphates IPX, suspended cells were pre-incubated with 0.1 μM [^3H]myo-inositol for 60 min, washed, and incubated with 10 mM LiCl for 15 min. […] The incubation was stopped by addition of 0.5 ml of chloroform methanol HCl mixture (2:1:0.1). After separation of water and organic phases, 0.6 ml of water phase was applied to Dowex columns (1.5 g of Dowex per column), washed by 20 ml of 60 mM ammonium formate/5 mM sodium borate buffer and eluted from columns with 4 ml of 1M ammonium formate/0.1 formic acid buffer and measured by liquid scintillation spectrometry.
(§3) For bi-phasic response, curves were inhibitory and stimulatory phase were fitted separately. Operational Model of Functional Agonism
(§4) [formula] where y is functional response at concentration of tested compound x, EMAX is maximal response of the system, KA is equilibrium dissociation constant and nH is slope factor. Eq. 5 was fitted to data from functional experiments. Eq. 5 was fitted to data by the two-step procedure described earlier. […] In the second step, Eq. 5 with EMAX fixed to the value determined in the first step was fitted to individual experimental data sets. Relative Intrinsic Activity

M5 muscarinic receptor = biological target: T2, M5 muscarinic receptor (Homo sapiens, UniProt P08912); experiment: inhibition of forskolin-stimulated cAMP, M5 CHO cells (M5Gi); type: cell-based; parameters: host or cells: CHO cells, stably transfected; conditions: for Emax: CHO; for effect on forskolin-stimulated production of cAMP: M5, non-preferential response, in words; for RAi: Table 8, relative to carbachol; for Δlog(τ/KA): Table 8, to carbachol; for Gi over Gq+G15 bias: at M5 receptors
T2 sequence (P08912 1-532): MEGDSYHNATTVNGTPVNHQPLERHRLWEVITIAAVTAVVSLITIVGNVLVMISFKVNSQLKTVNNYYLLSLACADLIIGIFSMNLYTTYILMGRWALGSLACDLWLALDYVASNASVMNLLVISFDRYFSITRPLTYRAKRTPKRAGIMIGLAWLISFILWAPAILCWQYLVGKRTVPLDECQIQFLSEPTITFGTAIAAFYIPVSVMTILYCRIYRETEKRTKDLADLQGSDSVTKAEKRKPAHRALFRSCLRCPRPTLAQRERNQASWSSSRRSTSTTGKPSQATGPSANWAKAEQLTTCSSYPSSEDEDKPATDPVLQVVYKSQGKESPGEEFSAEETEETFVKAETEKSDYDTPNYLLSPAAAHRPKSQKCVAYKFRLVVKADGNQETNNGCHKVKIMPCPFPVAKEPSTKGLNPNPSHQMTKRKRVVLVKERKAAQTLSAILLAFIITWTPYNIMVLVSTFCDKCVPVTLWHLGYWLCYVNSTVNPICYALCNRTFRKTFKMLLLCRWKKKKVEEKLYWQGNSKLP
Experimental: Since activation of phospholipase C (PLC) via M2 and M4 receptors is weak, cells were transferred with G15 G-protein to facilitate coupling.
as §1, §2, §3, §4
Muscarinic receptors are also able to stimulate non-preferential signalling pathways.

[1] = M1Gq + G15 (↑IPX), Table 8, relative to carbachol
[2] = M1Gq + G15 (↑IPX), Table 8, to carbachol
[3] = M1Gq + G15 (↑IPX), Table 8, read-out: pEC50 (converted)
[4] = M1Gq + G15 (↑IPX), Table 8, read-out: pKA (converted)
[5] = M5Gi (↓cAMP), Table 8, read-out: E′MAX
[6] = M5Gi (↓cAMP), Table 8, read-out: pEC50 (converted)
[7] = M5Gi (↓cAMP), Table 8, read-out: pKA (converted)

SMILES	E′MAX (M1 muscarinic receptor; M1Gq + G15 (↑IPX), Table 8) [fold increase]	τ (M1 muscarinic receptor; M1Gq + G15 (↑IPX), Table 8)	RAi (M1 muscarinic receptor; [1])	Δlog(τ/KA) (M1 muscarinic receptor; [2])	EC50 (M1 muscarinic receptor; [3]) [µM]	Kd (M1 muscarinic receptor; [4]) [µM]	Emax (M5 muscarinic receptor; [5]) [%]	effect on forskolin-stimulated production of cAMP (M5 muscarinic receptor)	τ (M5 muscarinic receptor; M5Gi (↓cAMP), Table 8)	RAi (M5 muscarinic receptor; M5Gi (↓cAMP))	Δlog(τ/KA) (M5 muscarinic receptor; M5Gi (↓cAMP))	EC50 (M5 muscarinic receptor; [6]) [µM]	Kd (M5 muscarinic receptor; [7]) [µM]	Gi over Gq+G15 bias (M5 muscarinic receptor)	further results
C1=CCN(Cc2cccs2)CC1.Cl [Compound 6A, 1-[(thiophen-2-yl)methyl]-1,2,3,6-tetrahydropyridin-1-ium chloride]	2.0 ± 0.2	0.03 ± 0.01	0.0010 ± 0.0001	2.98 ± 0.26	7.94	7.94	22 ± 2	inhibited cAMP production	0.31 ± 0.04	0.021 ± 0.002	1.70 ± 0.21	21.9	31.6	about 10 fold	–
C[N+]1(Cc2cccs2)CC=CCC1.[I-] (centres unmarked) [Compound 7A, 1-methyl-1-[(thiophen-2-yl)methyl]-1,2,3,6-tetrahydropyridin-1-ium iodide]	4.6 ± 0.4	0.12 ± 0.01	0.0111 ± 0.0002	1.96 ± 0.16	2.63	3.16	34 ± 2	inhibited cAMP production	0.59 ± 0.02	0.026 ± 0.003	1.67 ± 0.18	31.6	50.1	~30 fold	–
C[N+](C)(C)CCOC(N)=O [carbachol, reference compound]	–	–	–	–	–	–	–	inhibited forskolin-stimulated production of cAMP at nanomolar concentrations	0.24 ± 0.03	–	0	–	–	–	E′MAX (M5 muscarinic receptor; M5Gi (↓cAMP), Table 8): 18 ± 1 % of inhibition
O=C1CCCN1CC#CCN1CCCC1 [oxotremorine, reference compound]	–	–	–	–	–	–	–	–	0.31 ± 0.03	6.44 ± 0.67	−0.79 ± 0.06	–	–	–	EC50 (M1 muscarinic receptor): 0.0525 µM; E′MAX (M1 muscarinic receptor): 25 ± 2 fold increase; Kd (M1 muscarinic receptor): 0.2 µM; RAi (M1 muscarinic receptor): 3.71 ± 0.29; Δlog(τ/KA) (M1 muscarinic receptor): −0.57 ± 0.06; τ (M1 muscarinic receptor): 2.6 ± 0.3; EC50 (M5 muscarinic receptor): 0.0708 µM; Kd (M5 muscarinic receptor): 0.1 µM; Emax (M5 muscarinic receptor): 22 ± 2%
